Measurements taken from US11370798B2 (Vertex Pharmaceuticals Incorporated, priority 2012, dated 2022).

The compounds below were run on HCT116 colorectal cancer cells (assay: Cisplatin sensitization assay (96 h cell viability MTS)). Conditions: compound and Cisplatin added simultaneously, Cisplatin sensitization value.
Format: cell-based
Protocol: Compounds can be screened for their ability to sensitize HCT116 colorectal cancer cells to Cisplatin using a 96 h cell viability (MTS) assay. […] Compounds and Cisplatin are then both added simultaneously to the cell media in 2-fold serial dilutions from a top final concentration of 10 μM as a full matrix of concentrations in a final cell volume of 200 μl, and the cells are then incubated at 37° C. in 5% CO2. After 96 h, 40 μl of MTS reagent (Promega G358a) is added to each well and the cells are incubated for 1 h at 37° C. in 5% CO2.
Compounds with a Cisplatin sensitization value of <0.02 μM are marked with “+++.” Compounds with a Cisplatin sensitization value>0.02 μM but <0.2 μM are marked with “++.” Compounds with a Cisplatin sensitization value>0.2 μM but <5 μM are marked with “+.”
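Also: Test-compound concentration that lowers the Cisplatin IC50 by a set fold.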

SMILES	Cisplatin Sensitization Assay
Cn1ccnc1-c1ccncc1NC(=O)c1c(N)nn2cc(F)cnc12 [I-C-55, 2-amino-6-fluoro-N-(4-(1-methyl-1H-imidazol-2-yl)pyridin-3-yl)pyrazolo[1,5-a]pyrimidine-3-carboxamide]	+ (Cisplatin sensitization value>0.2 μM but <5 μM)
Cn1cncc1-c1ccncc1NC(=O)c1c(N)nn2cc(F)cnc12 [I-C-56, 2-amino-6-fluoro-N-(4-(1-methyl-1H-imidazol-5-yl)pyridin-3-yl)pyrazolo[1,5-a]pyrimidine-3-carboxamide]	+++ (Cisplatin sensitization value of <0.02 μM)
Cn1nccc1-c1ccncc1NC(=O)c1c(N)nn2cc(F)cnc12 [I-C-57, 2-amino-6-fluoro-N-(4-(1-methyl-1H-pyrazol-5-yl)pyridin-3-yl)pyrazolo[1,5-a]pyrimidine-3-carboxamide]	+++ (Cisplatin sensitization value of <0.02 μM)
Cn1c(-c2ccncc2NC(=O)c2c(N)nn3cc(F)cnc23)cccc1=O [I-C-58, 2-amino-6-fluoro-N-(1-methyl-6-oxo-1,6-dihydro-[2,4′-bipyridin]-3′-yl)pyrazolo[1,5-a]pyrimidine-3-carboxamide]	+++ (Cisplatin sensitization value of <0.02 μM)
Cn1cc(-c2ccncc2NC(=O)c2c(N)nn3cc(F)cnc23)ccc1=O [I-C-59, 2-amino-6-fluoro-N-(1-methyl-6-oxo-1,6-dihydro-[3,4′-bipyridin]-3′-yl)pyrazolo[1,5-a]pyrimidine-3-carboxamide]	++ (Cisplatin sensitization value>0.02 μM but <0.2 μM)
Nc1nn2cc(F)cnc2c1C(=O)Nc1cnccc1-c1ccccn1 [I-C-60, N-([2,4′-bipyridin]-3′-yl)-2-amino-6-fluoropyrazolo[1,5-a]pyrimidine-3-carboxamide]	++ (Cisplatin sensitization value>0.02 μM but <0.2 μM)
CS(=O)(=O)c1ccc(-c2ccncc2NC(=O)c2c(N)nn3cc(F)cnc23)cc1 [I-C-61, 2-amino-6-fluoro-N-(4-(4-(methylsulfonyl)phenyl)pyridin-3-yl)pyrazolo[1,5-a]pyrimidine-3-carboxamide]	+++ (Cisplatin sensitization value of <0.02 μM)
Cc1nccnc1-c1ccncc1NC(=O)c1c(N)nn2cc(F)cnc12 [I-C-62, 2-amino-6-fluoro-N-(4-(3-methylpyrazin-2-yl)pyridin-3-yl)pyrazolo[1,5-a]pyrimidine-3-carboxamide]	++ (Cisplatin sensitization value>0.02 μM but <0.2 μM)
Cc1nn(C)cc1-c1ccncc1NC(=O)c1c(N)nn2cc(F)cnc12 [I-C-63, 2-amino-N-(4-(1,3-dimethyl-1H-pyrazol-4-yl)pyridin-3-yl)-6-fluoropyrazolo[1,5-a]pyrimidine-3-carboxamide]	+++ (Cisplatin sensitization value of <0.02 μM)
Nc1nn2cc(F)cnc2c1C(=O)Nc1cnccc1-c1ccc(S(=O)(=O)N2CCC2)cc1 [I-C-64, 2-amino-N-(4-(4-(azetidin-1-ylsulfonyl)phenyl)pyridin-3-yl)-6-fluoropyrazolo[1,5-a]pyrimidine-3-carboxamide]	+++ (Cisplatin sensitization value of <0.02 μM)
Cn1ncnc1-c1ccncc1NC(=O)c1c(N)nn2cc(F)cnc12 [I-C-65, 2-amino-6-fluoro-N-(4-(1-methyl-1H-1,2,4-triazol-5-yl)pyridin-3-yl)pyrazolo[1,5-a]pyrimidine-3-carboxamide]	++ (Cisplatin sensitization value>0.02 μM but <0.2 μM)
CN1CCOC[C@@H]1c1ccc(-c2ccncc2NC(=O)c2c(N)nn3cc(F)cnc23)cc1 [I-C-66, (S)-2-amino-6-fluoro-N-(4-(4-(4-methylmorpholin-3-yl)phenyl)pyridin-3-yl)pyrazolo[1,5-a]pyrimidine-3-carboxamide]	+++ (Cisplatin sensitization value of <0.02 μM)
Cc1cncnc1-c1ccncc1NC(=O)c1c(N)nn2cc(F)cnc12 [I-C-67, 2-amino-6-fluoro-N-(4-(5-methylpyrimidin-4-yl)pyridin-3-yl)pyrazolo[1,5-a]pyrimidine-3-carboxamide]	++ (Cisplatin sensitization value>0.02 μM but <0.2 μM)
Cn1ccc(-c2ccncc2NC(=O)c2c(N)nn3cc(F)cnc23)n1 [I-C-68, 2-amino-6-fluoro-N-(4-(1-methyl-1H-pyrazol-3-yl)pyridin-3-yl)pyrazolo[1,5-a]pyrimidine-3-carboxamide]	+ (Cisplatin sensitization value>0.2 μM but <5 μM)
CC(=O)N1CCC(c2ccncc2NC(=O)c2c(N)nn3cc(F)cnc23)CC1 [I-C-69, N-(4-(1-acetylpiperidin-4-yl)pyridin-3-yl)-2-amino-6-fluoropyrazolo[1,5-a]pyrimidine-3-carboxamide]	+++ (Cisplatin sensitization value of <0.02 μM)
Nc1nn2cc(F)cnc2c1C(=O)Nc1cnccc1C1CCN(C(=O)C2CC2)CC1 [I-C-70, 2-amino-N-(4-(1-(cyclopropanecarbonyl)piperidin-4-yl)pyridin-3-yl)-6-fluoropyrazolo[1,5-a]pyrimidine-3-carboxamide]	+++ (Cisplatin sensitization value of <0.02 μM)
N#CC1(C(=O)N2CCC(c3ccncc3NC(=O)c3c(N)nn4cc(F)cnc34)CC2)CC1 [I-C-71, 2-amino-N-(4-(1-(1-cyanocyclopropanecarbonyl)piperidin-4-yl)pyridin-3-yl)-6-fluoropyrazolo[1,5-a]pyrimidine-3-carboxamide]	+++ (Cisplatin sensitization value of <0.02 μM)
Cn1nncc1-c1ccncc1NC(=O)c1c(N)nn2cc(F)cnc12 [I-C-72, 2-amino-6-fluoro-N-(4-(1-methyl-1H-1,2,3-triazol-5-yl)pyridin-3-yl)pyrazolo[1,5-a]pyrimidine-3-carboxamide]	+++ (Cisplatin sensitization value of <0.02 μM)
CN1CCC(c2ccncc2NC(=O)c2c(N)nn3cc(F)cnc23)CC1=O (stereo not drawn) [I-C-73, 2-amino-6-fluoro-N-(4-(1-methyl-2-oxopiperidin-4-yl)pyridin-3-yl)pyrazolo[1,5-a]pyrimidine-3-carboxamide]	++ (Cisplatin sensitization value>0.02 μM but <0.2 μM)
Cn1ccc2c(NC(=O)c3c(N)nn4cc(F)cnc34)cncc21 [I-C-74, 2-amino-6-fluoro-N-(1-methyl-1H-pyrrolo[2,3-c]pyridin-4-yl)pyrazolo[1,5-a]pyrimidine-3-carboxamide]	+ (Cisplatin sensitization value>0.2 μM but <5 μM)
Nc1nn2cc(F)cnc2c1C(=O)Nc1cnccc1C1CCOC1 (stereo not drawn) [I-C-75, 2-amino-6-fluoro-N-(4-(tetrahydrofuran-3-yl)pyridin-3-yl)pyrazolo[1,5-a]pyrimidine-3-carboxamide]	++ (Cisplatin sensitization value>0.02 μM but <0.2 μM)
Nc1nn2cc(F)cnc2c1C(=O)Nc1cnccc1CN1CCCC1=O [I-C-76, 2-amino-6-fluoro-N-(4-((2-oxopyrrolidin-1-yl)methyl)pyridin-3-yl)pyrazolo[1,5-a]pyrimidine-3-carboxamide]	+ (Cisplatin sensitization value>0.2 μM but <5 μM)
Cc1ncc(-c2ccncc2NC(=O)c2c(N)nn3cc(F)cnc23)n1C [I-C-77, 2-amino-N-(4-(1,2-dimethyl-1H-imidazol-5-yl)pyridin-3-yl)-6-fluoropyrazolo[1,5-a]pyrimidine-3-carboxamide]	+++ (Cisplatin sensitization value of <0.02 μM)
Cc1ncn(C)c1-c1ccncc1NC(=O)c1c(N)nn2cc(F)cnc12 [I-C-78, 2-amino-N-(4-(1,4-dimethyl-1H-imidazol-5-yl)pyridin-3-yl)-6-fluoropyrazolo[1,5-a]pyrimidine-3-carboxamide]	++ (Cisplatin sensitization value>0.02 μM but <0.2 μM)
Cn1cncc1-c1c(F)cncc1NC(=O)c1c(N)nn2cc(F)cnc12 [I-C-79, 2-amino-6-fluoro-N-(5-fluoro-4-(1-methyl-1H-imidazol-5-yl)pyridin-3-yl)pyrazolo[1,5-a]pyrimidine-3-carboxamide]	+++ (Cisplatin sensitization value of <0.02 μM)
CCn1cncc1-c1ccncc1NC(=O)c1c(N)nn2cc(F)cnc12 [I-C-80, 2-amino-N-(4-(1-ethyl-1H-imidazol-5-yl)pyridin-3-yl)-6-fluoropyrazolo[1,5-a]pyrimidine-3-carboxamide]	+++ (Cisplatin sensitization value of <0.02 μM)
COc1cncc(NC(=O)c2c(N)nn3cc(F)cnc23)c1-c1cncn1C [I-C-81, 2-amino-6-fluoro-N-(5-methoxy-4-(1-methyl-1H-imidazol-5-yl)pyridin-3-yl)pyrazolo[1,5-a]pyrimidine-3-carboxamide]	+++ (Cisplatin sensitization value of <0.02 μM)
COc1cncc(NC(=O)c2c(N)nn3cc(F)cnc23)c1-c1cccnc1 [I-C-82, 2-amino-6-fluoro-N-(5′-methoxy-[3,4′-bipyridin]-3′-yl)pyrazolo[1,5-a]pyrimidine-3-carboxamide]	+++ (Cisplatin sensitization value of <0.02 μM)
COCCn1cncc1-c1ccncc1NC(=O)c1c(N)nn2cc(F)cnc12 [I-C-83, 2-amino-6-fluoro-N-(4-(1-(2-methoxyethyl)-1H-imidazol-5-yl)pyridin-3-yl)pyrazolo[1,5-a]pyrimidine-3-carboxamide]	++ (Cisplatin sensitization value>0.02 μM but <0.2 μM)
COc1cncc(NC(=O)c2c(N)nn3cc(F)cnc23)c1C1CC1 [I-C-84, 2-amino-N-(4-cyclopropyl-5-methoxypyridin-3-yl)-6-fluoropyrazolo[1,5-a]pyrimidine-3-carboxamide]	++ (Cisplatin sensitization value>0.02 μM but <0.2 μM)
